Measurements taken from the METLIN SMRT retention time set (Domingo-Almenara et al. 2019).

Assay: gradient 5% acetonitrile 3 min, to 50% in 2 min, to 85% in 15 min, held 3 min, 100 µL/min
Details: column: Zorbax Extend-C18 2.1 x 50 mm; eluents: water / acetonitrile, 0.1% formic acid
How it was run: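 The mobile phases were water and acetonitrile, each with 0.1% formic acid, pumped at 100 μL/min through a Zorbax Extend-C18 column (2.1 × 50 mm, 1.8 μm). Pure standards were injected as mixtures of ~100 molecules and detected by a quadrupole time-of-flight mass spectrometer in positive and negative ionization mode. Retention time came from computationally picked adduct peaks, each inspected by hand.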

| SMILES | RP-LC retention time [s] |
| --- | --- |
| CCCCNC(=O)C1CCCN(C(=O)c2[nH]c(C)c(C(=O)OC(C)C)c2C)C1 (stereo unspecified) | 754 |
| CN(CC1CCOCC1)C(=O)Nc1cc(F)c(F)c(F)c1 | 804 |
| COCC(=O)N1CCC2(CC1)NCc1ccccc1-n1ccnc12 | 548 |
| OCC1CN(c2ncccn2)CC12CCN(Cc1c[nH]c3ccccc13)CC2 (stereo unspecified) | 579 |
| COc1ccccc1CC(=O)Nc1ccc2c(c1)CCC(=O)N2C | 721 |
| COc1cc(OC)cc(C(=O)N2CCC(C(=O)NCCc3csc(-c4cccs4)n3)CC2)c1 | 792 |
| Cc1noc(-c2cccn2Cc2cc(F)cc(F)c2)n1 | 1040 |
| Cn1cc(C(=O)NCCc2cccs2)c(S(=O)(=O)N2CCSCC2)n1 | 842 |
| Cc1ccc(-c2cn3ccn(-c4cccc(F)c4)c(=O)c3n2)cc1C | 873 |
| COc1ccc(C2CN(S(=O)(=O)c3ccccc3F)CCN2C)cc1 (stereo unspecified) | 670 |
| COC1CN(c2cccc(F)c2)C12CCN(CC1CCCCC1)CC2 (stereo unspecified) | 806 |
| Cc1ccc2[nH]cc(CCNC(=O)CCn3c(=O)c(C)nc4ccccc43)c2c1 | 781 |
| CSc1ncccc1C(=O)Nc1cccc(OCc2nnc(-c3ccc(Cl)cc3)o2)c1 | 1010 |
| COc1ccc(-c2nnc(-c3ccc(C)c(S(=O)(=O)N4CCC(C(=O)O)CC4)c3)o2)cc1OC | 785 |
| COc1cc(Cl)c(NS(=O)(=O)c2cc(-c3c(C)noc3NC(C)=O)ccc2OC)c(OC)c1 | 784 |
| CCOC(=O)C1CCN(c2nc(-c3ccc(Cl)cc3)nc3ccccc23)CC1 | 936 |
| COc1ccc(NC(=O)c2csc(-c3ccc(C)n3C)n2)c(OC)c1 | 1200 |
| CC(C)Cn1c(=O)c2ccccc2n(Cc2nc(-c3ccccc3Cl)no2)c1=O | 1170 |
| CCOc1ccc(CNc2nc3ccccc3n2CCN(CC)CC)cc1 | 1300 |
| Cc1cccc(-c2nc(C3CC(=O)N(c4ccc(Cl)cc4)C3)no2)c1 (stereo unspecified) | 1110 |
| COc1ccc(Cl)cc1S(=O)(=O)N1CCC(n2cnnc2C)CC1 | 684 |
| O=C(Cn1cnc2ccccc2c1=O)NC1CCCC1 | 672 |
| Nc1ncncc1-c1ccc2ccccc2c1 | 668 |

| SMILES | RP-LC retention time [s] |
| --- | --- |
| CCNc1nc(C)cc(N2CCN(C(=O)Nc3cccc(Cl)c3)CC2)n1 | 695 |
| COc1ccc(C2CC(=O)N(c3ccc(OC)cc3)C(=O)C2)cc1 | 864 |
| CCOC(=O)c1oc2ccccc2c1NC(=O)C1CCN(S(C)(=O)=O)CC1 | 762 |
| CCC(C(=O)NC(C)C(=O)N1CCCCC1)n1c2ccccc2c2cnn(C)c(=O)c21 (stereo unspecified) | 670 |
| Cn1cccc(C(=O)NCCCn2cccc2)c1=O | 644 |
| Cc1ccc(F)cc1NC(=O)c1cc2n(n1)CCCC2 | 949 |
| CSc1cccc(NC(=O)C2CCC(=O)N2S(=O)(=O)c2ccc(C)cc2)c1 (stereo unspecified) | 954 |
| CC(=O)Nc1ccc(NC(=O)c2cc3sccc3n2Cc2ccc(F)cc2)cc1 | 911 |
| O=C(C1CCCN(c2ccc(Sc3ccc(Br)cc3)nn2)C1)N1CCSCC1 (stereo unspecified) | 932 |
| O=C(NCCc1csc(-c2ccccc2)n1)C1CCN(C(=O)Cc2cccs2)CC1 | 794 |
| CCCn1cc(CCNC(=O)Nc2ccc3c(c2)OCCO3)c2cccnc21 | 704 |
| COc1ccccc1N1CCN(C(=O)C2CCCN(c3cnc4nccnc4c3)C2)CC1 (stereo unspecified) | 688 |
| CCOC(=O)c1cnc2nc(C)ccc2c1Nc1cccc(F)c1 | 689 |
| COc1ccc(-c2nnc(-c3ccccc3Cl)o2)cc1S(=O)(=O)N1CCC(C)CC1 | 1150 |
| CCn1nc(C)c2c(-c3ccccc3)cc(OC(C)C(=O)Nc3ccc4c(c3)OCO4)nc21 (stereo unspecified) | 1030 |
| COCCNC(=O)C1CN(S(=O)(=O)c2ccccc2)CC12CCCCC2 (stereo unspecified) | 811 |
| Cn1c(-c2cccc(C(=O)NCc3cc(F)ccc3F)c2)nc2cccnc21 | 726 |
| CCCNC(=O)N1N=C(c2ccc(N)cc2)c2cc3c(cc2C1C)OCO3 (stereo unspecified) | 854 |
| O=C(COc1ccc(F)cc1)N1CCN(c2nc(CN3CCCCC3)cs2)CC1 | 655 |
| COc1ccc(C(O)CN2CCN(c3ccc(OC)cc3)CC2)cc1 (stereo unspecified) | 647 |
| COc1ccccc1C(=O)N1CCC2(CC1)NC(=O)c1cc(Cl)ccc1N2C | 787 |
| O=C(c1ccc(F)c(Cl)c1)N(CC1CCOC1)C1CC1 (stereo unspecified) | 824 |
| Cc1nncn1C1CCN(S(=O)(=O)c2ccc(C(C)C)cc2)CC1 | 674 |

| SMILES | RP-LC retention time [s] |
| --- | --- |
| Cc1ccc(NC(=O)Cn2c(C)cc(-c3nnc(C)o3)c2C)c(C)c1 | 802 |
| Cc1cc(C)n(-c2ccc(C(=O)NCc3ccc(C(C)C)cc3)cn2)n1 | 1100 |
| O=C([C@@H]1C[C@H](F)CN1S(=O)(=O)c1ccc(Br)cc1)N1CCCCC1 | 865 |
| CNc1nccc(N2CCC(CC(=O)NCCCN3CCCC3=O)CC2)n1 | 490 |
| Cc1cccc(NC(=O)C2CCN(S(=O)(=O)c3cc(C(=O)N4CCCC4)cs3)CC2)c1 | 819 |
| O=C(NC1CCN(c2cc(-c3ccccc3)[nH]n2)C1)c1cccc(F)c1 (stereo unspecified) | 717 |
| O=C(NCC1CCN(C(=O)c2ccccc2F)CC1)c1ccccn1 | 667 |
| CCN(CC)C(=O)c1c2c(nc3ccccc13)CCCC2 | 605 |
| CCC1CCCCN1CCCNC(=O)c1ccnc(-c2cccs2)c1 (stereo unspecified) | 627 |
| O=C(Cc1nnc(-c2cnccn2)o1)Nc1cccc(F)c1 | 679 |
| O=C(CN1CCCCC1c1nc(C2CC2)no1)Nc1cccnc1 (stereo unspecified) | 592 |
| O=C(CCc1c(-c2ccc(F)cc2)nc2ccccn12)Nc1cccc(C(F)(F)F)c1 | 752 |
| O=C(CSc1ccc(N2CCCC(C(=O)NC3CC3)C2)nn1)Nc1cccc(Cl)c1 (stereo unspecified) | 689 |
| CCN(CC)S(=O)(=O)c1ccc2c(c1)CC(C(=O)NCc1ccc(N(C)C)cc1)N2C(C)=O (stereo unspecified) | 669 |
| COC(=O)c1cnc2nc(C)ccc2c1Nc1ccccc1 | 627 |
| Cc1ccc(N2C(=O)N(CC(=O)N3CCCCC3C)C3CS(=O)(=O)CC32)cc1Cl (stereo unspecified) | 851 |
| CCC1CCCCN1C(=O)c1cnc2nc(C)ccc2c1Nc1cc(F)ccc1C (stereo unspecified) | 705 |
| CCC(=O)N1CCc2cc(N3CC(C(=O)Nc4cccc(F)c4)CC3=O)ccc21 (stereo unspecified) | 763 |
| Cn1cnc2cc(CNC(=O)C3CCCC3)ccc21 | 586 |
| COc1ccc(Cl)c2c(=O)c3c([nH]c12)CCN(CC(=O)Nc1ccccc1)C3 | 617 |
| O=C(CCc1ccccc1)NC1(c2nc(-c3ccncc3)no2)CCCCC1 | 902 |
| CCc1ccc(S(=O)(=O)N2CCc3nc(-c4ccccc4)ncc3C2)cc1 | 1160 |
| CCc1nc(NCc2ccc3c(c2)OCO3)ncc1C(=O)O | 766 |

| SMILES | RP-LC retention time [s] |
| --- | --- |
| CSc1cccc(NC(=O)Nc2ccccc2C(N)=O)c1 | 856 |
| CCCCC(=O)Nc1nc(-c2ccc3c(c2)N(CC)C(=O)CO3)c(C)s1 | 982 |
| CN1C(=O)C2(CCN(C(=O)CCc3ccccc3)C2)c2ccccc21 (stereo unspecified) | 803 |
| O=C(NCc1cccs1)C1CCCN(c2nc3ccsc3c(=O)n2Cc2ccc(F)cc2)C1 (stereo unspecified) | 899 |
| COc1ccc(-c2c(C(=O)NCCN3CCOCC3)nc3ccccn23)cc1 | 601 |
| CCn1cc(CCNC(=O)c2ccccc2C(F)(F)F)c2cccnc21 | 740 |
| CCOc1ccccc1N1CC(c2nc3ccccc3n2CCN2CCOCC2)CC1=O (stereo unspecified) | 610 |
| CC(=O)Nc1ccc(C2(C(=O)NCc3ccc(C)cc3)CCC2)cc1 | 790 |
| CCN1C(SCC(=O)N2CCCC2)=NS(=O)(=O)c2ccccc21 | 684 |
| O=C(C1CCCN(c2nnc(-n3cccc3)s2)C1)N1CCN(Cc2ccccc2)CC1 (stereo unspecified) | 661 |
| CCCOc1nc2ccccc2nc1N1CCCC(C(=O)NC(C)c2ccccc2)C1 (stereo unspecified) | 1230 |
| Cc1ccc(S(=O)(=O)N2CCN(c3cnn4c(C)nnc4c3)CC2)cc1 | 679 |
| O=C(NCc1ccc2c(c1)OCO2)c1ccc2c(c1)CC(=O)N2Cc1ccc(F)cc1 | 847 |
| CC(C)CCN1CCC(N2CCN(S(=O)(=O)Cc3ccccc3)CC2)C1=O (stereo unspecified) | 646 |
| CCN1CCC2(CC1)OC(=O)C(C)=C2C(=O)NCCCN1CCN(c2cc(C)ccc2C)CC1 | 586 |
| CNC(=O)C1CCN(Cc2cc3ccccc3n2Cc2cccc(Cl)c2)CC1 | 683 |
| CCCNC(=O)c1cn(-c2ccc(-c3nc(CC)no3)cn2)cn1 | 777 |
| COc1cc(-c2nnc(/C=C/c3cccs3)o2)cc(OC)c1OC | 886 |
| CCn1c(=O)sc2cc(S(=O)(=O)N3CCC(C(=O)Nc4cccc(C)n4)CC3)ccc21 | 768 |
| CC1=C(c2ccc(F)cc2)S(=O)(=O)N=C1N1CCCN(C(=O)C(C)C)CC1 | 751 |
| O=C(NCc1ccccc1Cl)C(=O)NCC1CCN(C(=O)Oc2ccccc2)CC1 | 893 |
| CCn1cc(-c2nc(C(=O)NCc3cccc(F)c3)cs2)c2cccnc21 | 983 |
